In PMC10048662, “Whole-Cell Biocatalytic Production of Acetoin with an aldC-Overexpressing Lactococcus lactis Using Soybean as Substrate” (Foods, 2023):

Molecular target: T1, ALDC (α-acetolactate decarboxylase, aldC) (Lactiplantibacillus plantarum, UniProt F9UPY7)
T1 construct: gene aldB; expressed in Lactococcus lactis NZ9000 from pNZ8048, crude lysate supernatant; ALDC described as dimer
Assay: acetoin formation, creatine/α-naphthol colour reaction at […] nm
Type: biochemical
Conditions: crude lysate supernatant of nisin-induced cells; 30 °C, 20 min; uninduced cells as comparison

T1 sequence (F9UPY7 entry or part of it): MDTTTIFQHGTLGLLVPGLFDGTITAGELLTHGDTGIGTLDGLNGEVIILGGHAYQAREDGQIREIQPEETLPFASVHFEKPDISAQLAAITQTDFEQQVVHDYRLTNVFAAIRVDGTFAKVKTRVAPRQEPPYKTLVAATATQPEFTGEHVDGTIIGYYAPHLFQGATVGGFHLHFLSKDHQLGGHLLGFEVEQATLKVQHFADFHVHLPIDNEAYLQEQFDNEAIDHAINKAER

For `CC(=O)C(C)(O)C(=O)O` (racemic) [α-acetolactate], the “acetoin formation, creatine/α-naphthol colour reaction at 522 nm” value was “the expressed ALDC can efficiently convert α-acetolactate to acetoin”.
